Values after ≈ are worked out from the molar mass of the structure shown.
Assays:
Assay type in all cases: cell-based
[1] = test system: Acholeplasma laidlawii ATCC 23206 LRP 204; test: Bacteriostatic power in solid medium (MIC); settings: Acholeplasma laidlawii, ATCC23206; solid medium; read-out: Minimum inhibiting concentration
Source text: (§1) the bacteriostatic power, expressed as the minimum inhibiting concentration (MIC) against both aerobic and anaerobic, Gram positive and Gram negative, bacterial stocks: the related results are reported in the tables 2 and 3.

[2] = test system: Bacillus subtilis LRP 25; test: Bacteriostatic power in solid medium (MIC); settings: Bacillus subtilis, LRP25; solid medium; read-out: Minimum inhibiting concentration
Source text: as §1

[3] = test system: Bacteroides fragilis ATCC 23745 LRP 205; test: Bacteriostatic power in solid medium (MIC); settings: Bacteroides fragilis, ATCC23745; solid medium; anaerobic; read-out: Minimum inhibiting concentration
Source text: as §1

[4] = test system: Corynebacterium diphteriae LRP 24; test: Bacteriostatic power in solid medium (MIC); settings: Corynebacterium, LRP24; solid medium; read-out: Minimum inhibiting concentration
Source text: as §1

[5] = test system: Escherichia coli LRP 50; test: Bacteriostatic power in solid medium (MIC); settings: Escherichia coli, LRP50; solid medium; read-out: Minimum inhibiting concentration
Source text: as §1

[6] = test system: Fusobacteriumnecrophroum ATCC 27852 LRP 210; test: Bacteriostatic power in solid medium (MIC); settings: solid medium; anaerobic; read-out: Minimum inhibiting concentration
Source text: as §1

[7] = test system: Haemophilus influenzae ATCC 19418 LRP 213; test: Bacteriostatic power in solid medium (MIC); settings: Haemophilus influenzae, ATCC19418, read-out: Minimum inhibiting concentration
Source text: as §1

[8] = test system: Klelsiella pneumoniae LRP 54; test: Bacteriostatic power in solid medium (MIC); settings: solid medium; read-out: Minimum inhibiting concentration
Source text: as §1

[9] = test system: Micrococcus luteus ATCC 15957 LRP 193; test: Bacteriostatic power in solid medium (MIC); settings: Micrococcus luteus, ATCC15957; solid medium; Erythromycin resistant; read-out: Minimum inhibiting concentration
Source text: as §1

[10] = test system: Micrococcus luteus ATCC 9341 LRP 6; test: Bacteriostatic power in solid medium (MIC); settings: Micrococcus luteus, ATCC9341; solid medium; read-out: Minimum inhibiting concentration
Source text: as §1

[11] = test system: Mycoplasma hominis I ATCC 14027 LRP 211; test: Bacteriostatic power in solid medium (MIC); settings: Metamycoplasma hominis, ATCC14027; solid medium; read-out: Minimum inhibiting concentration
Source text: as §1

[12] = test system: Neisseria gonorrhoeae ATCC 19424 LRP 214; test: Bacteriostatic power in solid medium (MIC); settings: Neisseria gonorrhoeae, ATCC19424; solid medium; read-out: Minimum inhibiting concentration
Source text: as §1

[13] = test system: Proteus vulgaris ATCC 6380 LRP 13; test: Bacteriostatic power in solid medium (MIC); settings: Proteus vulgaris, ATCC6380; solid medium; read-out: Minimum inhibiting concentration
Source text: as §1

[14] = test system: Pseudomonas aeruginosa LRP 9; test: Bacteriostatic power in solid medium (MIC); settings: Pseudomonas aeruginosa, LRP9; solid medium; read-out: Minimum inhibiting concentration
Source text: as §1

[15] = test system: Shigella sonnei LRP 5; test: Bacteriostatic power in solid medium (MIC); settings: LRP5, read-out: Minimum inhibiting concentration
Source text: as §1

[16] = test system: Staphylococcus aureus ATCC 14154 LRP 78; test: Bacteriostatic power in solid medium (MIC); settings: Staphylococcus aureus, ATCC14154, read-out: Minimum inhibiting concentration
Source text: as §1

[17] = test system: Staphylococcus aureus ATCC 6538P LRP 14; test: Bacteriostatic power in solid medium (MIC); settings: Staphylococcus aureus, ATCC6538P; solid medium; Penycilline resistant; read-out: Minimum inhibiting concentration
Source text: as §1

[18] = test system: Staphylococcus aureus ATCC 6538P LRP 39; test: Bacteriostatic power in solid medium (MIC); settings: Staphylococcus aureus, ATCC6538P; solid medium; read-out: Minimum inhibiting concentration
Source text: as §1

[19] = test system: Streptococcus faecalis LRP 7; test: Bacteriostatic power in solid medium (MIC); settings: Enterococcus faecalis, LRP7; solid medium; read-out: Minimum inhibiting concentration
Source text: as §1

[20] = test system: Streptococcus faecalis subsp. zymogenes ATCC 12958 LRP 61; test: Bacteriostatic power in solid medium (MIC); settings: Enterococcus faecalis, ATCC12958; solid medium; read-out: Minimum inhibiting concentration
Source text: as §1

[21] = test system: Streptococcus pneumoniae ATCC 6303 LRP 35; test: Bacteriostatic power in solid medium (MIC); settings: Streptococcus pneumoniae, ATCC6303; solid medium; read-out: Minimum inhibiting concentration
Source text: as §1

[22] = test system: Streptococcus pneumoniae ATCC 6303 LRP 52; test: Bacteriostatic power in solid medium (MIC); settings: Streptococcus pneumoniae, ATCC6303; solid medium; read-out: Minimum inhibiting concentration
Source text: as §1

[23] = test system: Streptococcus pneumoniae ATCC 6303 LRP 53; test: Bacteriostatic power in solid medium (MIC); settings: Streptococcus pneumoniae, ATCC6303; solid medium; read-out: Minimum inhibiting concentration
Source text: as §1

[24] = test system: Streptococcus pyogenes ATCC 8668 LRP 197; test: Bacteriostatic power in solid medium (MIC); settings: Streptococcus pyogenes, ATCC8668; solid medium; read-out: Minimum inhibiting concentration
Source text: as §1

[25] = test system: Streptococcus pyogenes ATCC 8668 LRP 34; test: Bacteriostatic power in solid medium (MIC); settings: Streptococcus pyogenes, ATCC8668; solid medium; read-out: Minimum inhibiting concentration
Source text: as §1

[26] = test system: Clostridium perfrigens ATCC 3624 LRP 206; test: microbe, parasite or virus in culture; settings: ATCC3624, solid medium, anaerobic, read-out: Minimum inhibiting concentration
Source text: as §1

[27] = test system: Salmonella typhy LRP 8; test: microbe, parasite or virus in culture; settings: LRP8, solid medium, read-out: Minimum inhibiting concentration
Source text: as §1

[28] = test system: Corynebacterium diphteriae LRP 24; test: Bacteriostatic power in liquid medium (MIC); settings: Corynebacterium, LRP24; liquid medium; read-out: Minimum inhibiting concentration
Source text: as §1

[29] = test system: Staphylococcus aureus ATCC 6538 P LRP 39; test: Bacteriostatic power in liquid medium (MIC); settings: Staphylococcus aureus, ATCC6538; liquid medium; read-out: Minimum inhibiting concentration
Source text: as §1

[30] = test system: Streptococcus faecalis subs. zymogenes ATCC 12958 LRP 61; test: Bacteriostatic power in liquid medium (MIC); settings: Enterococcus faecalis, ATCC12958; liquid medium; read-out: Minimum inhibiting concentration
Source text: as §1

[31] = test system: Streptococcus pneumoniae ATCC 6303 LRP 35; test: Bacteriostatic power in liquid medium (MIC); settings: Streptococcus pneumoniae, ATCC6303; liquid medium; read-out: Minimum inhibiting concentration
Source text: as §1

[32] = test system: Streptococcus pyogenes ATCC 8668 LRP 34; test: Bacteriostatic power in liquid medium (MIC); settings: Streptococcus pyogenes, ATCC8668; liquid medium; read-out: Minimum inhibiting concentration
Source text: as §1

[33] = test system: Corynebacterium diphteriae LRP 24; test: Minimum bactericidal concentration (MBC)
Source text: (§2) the bacterial power, expressed as the minimum bactericidal power (MBC) against some Gram positive aerobic stocks (table 5).

[34] = test system: Staphylococcus aureus ATCC 6538 P LRP 39; test: Minimum bactericidal concentration (MBC)
Source text: as §2

[35] = test system: Streptococcus faecalis subs. zymogenes LRP 61; test: Minimum bactericidal concentration (MBC)
Source text: as §2

[36] = test system: Streptococcus pneumoniae ATCC 6303 LRP 35; test: Minimum bactericidal concentration (MBC)
Source text: as §2

[37] = test system: Streptococcus pyogenes ATCC 8668 LRP 34; test: Minimum bactericidal concentration (MBC)
Source text: as §2

## CO[C@H]1C[C@H](O[C@H]2[C@H](C)[C@@H](O[C@@H]3O[C@H](C)C[C@H](N(C)C)[C@H]3O)[C@@H](C)C[C@@]3(CO3)C(=O)[C@H](C)[C@@H](O)[C@@H](C)[C@@H](C)OC(=O)[C@@H]2C)O[C@@H](C)[C@@H]1O [Oleandomycin, reference compound]
[1]
  MIC: 6.25 µg/mL (≈ 9.09 µM)
[2]
  MIC: 0.39 µg/mL (≈ 0.567 µM)
[3]
  MIC: 0.39 µg/mL (≈ 0.567 µM)
[4]
  MIC: 0.097 µg/mL (≈ 0.141 µM)
[5]
  MIC: 25 µg/mL (≈ 36.3 µM)
[6]
  MIC: 6.25 µg/mL (≈ 9.09 µM)
[7]
  MIC: 25 µg/mL (≈ 36.3 µM)
[8]
  MIC: 25 µg/mL (≈ 36.3 µM)
[9]
  MIC: 25 µg/mL (≈ 36.3 µM)
[10]
  MIC: 0.049 µg/mL (≈ 0.0712 µM)
[11]
  MIC: 25 µg/mL (≈ 36.3 µM)
[12]
  MIC: 0.39 µg/mL (≈ 0.567 µM)
[13]
  MIC: 25 µg/mL (≈ 36.3 µM)
[14]
  MIC: 25 µg/mL (≈ 36.3 µM)
[15]
  MIC: 25 µg/mL (≈ 36.3 µM)
[16]
  MIC: 25 µg/mL (≈ 36.3 µM)
[17]
  MIC: 0.39 µg/mL (≈ 0.567 µM)
[18]
  MIC: 0.39 µg/mL (≈ 0.567 µM)
[19]
  MIC: 1.56 µg/mL (≈ 2.27 µM)
[20]
  MIC: 1.56 µg/mL (≈ 2.27 µM)
[21]
  MIC: 0.195 µg/mL (≈ 0.283 µM)
[22]
  MIC: 0.195 µg/mL (≈ 0.283 µM)
[23]
  MIC: 0.195 µg/mL (≈ 0.283 µM)
[24]
  MIC: 0.195 µg/mL (≈ 0.283 µM)
[25]
  MIC: 0.195 µg/mL (≈ 0.283 µM)
[26]
  MIC: 3.12 µg/mL (≈ 4.54 µM)
[27]
  MIC: 25 µg/mL (≈ 36.3 µM)
[28]
  MIC: 0.097 µg/mL (≈ 0.141 µM)
[29]
  MIC: 0.39 µg/mL (≈ 0.567 µM)
[30]
  MIC: 1.56 µg/mL (≈ 2.27 µM)
[31]
  MIC: 0.195 µg/mL (≈ 0.283 µM)
[32]
  MIC: 0.195 µg/mL (≈ 0.283 µM)
[33]
  MBC/MIC: 4
[33]; Corynebacterium, LRP24, read-out: Minimum bactericidal concentration (MBC)
  MBC: 0.39 µg/mL (≈ 0.567 µM)
[34]
  MBC/MIC: 16
[34]; Staphylococcus aureus, ATCC6538, read-out: Minimum bactericidal concentration (MBC)
  MBC: 6.25 µg/mL (≈ 9.09 µM)
[35]
  MBC/MIC: > 8
[35]; Enterococcus faecalis, read-out: Minimum bactericidal concentration (MBC)
  MBC: > 12.5 µg/mL
[36]
  MBC/MIC: 4
[36]; Streptococcus pneumoniae, ATCC6303, read-out: Minimum bactericidal concentration (MBC)
  MBC: 0.78 µg/mL (≈ 1.13 µM)
[37]
  MBC/MIC: 16
[37]; Streptococcus pyogenes, ATCC8668, read-out: Minimum bactericidal concentration (MBC)
  MBC: 3.12 µg/mL (≈ 4.54 µM)

Source: US4439426A, “Semisynthetic macrolidic antibiotics, intermediate compounds for their preparation and related pharmaceutical compositions containing them” (priority 1981, dated 1984)
